ChEMBL document CHEMBL4346723, “Targeting tropomyosin receptor kinase for cancer therapy” (Eur J Med Chem, 2019)
Each block holds one compound with its values, some of them ahead of it.

Tests used:
[1] = target: T1, High affinity nerve growth factor receptor (Homo sapiens, UniProt P04629); experiment: Inhibition of recombinant full length human TRKA expressed in U2OS cells using Poly(Glu:Tyr) as substrate after 30 mins by scintillation counting assay
[2] = target: T1, High affinity nerve growth factor receptor; experiment: Inhibition TRKA (unknown origin) by cell based assay
[3] = Inhibition of TRK (unknown origin); design: species or system Homo sapiens
[4] = target: NTRK1/NTRK2 (Homo sapiens, UniProt P04629+Q16620); experiment: Inhibition of TRKA/TRKB (unknown origin); assay type: protein assay
[5] = target: T1, High affinity nerve growth factor receptor; experiment: Inhibition of recombinant N- terminal GST-tagged human NTRK1 expressed in baculovirus infected Sf9 cells using Poly(Glu:Tyr) as substrate after 45 mins
[6] = target: T1, High affinity nerve growth factor receptor; experiment: Inhibition of NTRK1 in human KM12 cells; assay type: cell-based
[7] = target: T1, High affinity nerve growth factor receptor; experiment: Inhibition of recombinant His-tagged human TRKA cytoplasmic domain (441 to 796 residues) expressed in baculovirus expression system using biotin labelled TK peptide preincubated for 20 mins followed by substrate addition by HTRF assay
[8] = target: T2, BDNF/NT-3 growth factors receptor (Homo sapiens, UniProt Q16620); experiment: Inhibition of TRKB (unknown origin)
[9] = target: Tyrosine-protein kinase BTK (Homo sapiens, UniProt Q06187); experiment: Inhibition of BTK (unknown origin)
[10] = target: T1, High affinity nerve growth factor receptor; experiment: Inhibition of human TRKA expressed in human AD293 cells assessed as reduction in TrkA phosphorylation at Tyr490 residues preincubated for 20 mins followed by NGF-stimulation measure after 5 mins by ELISA; assay type: cell-based
[11] = target: T3, Tyrosine-protein kinase JAK2 (Homo sapiens, UniProt O60674); experiment: Inhibition of recombinant C-terminal His6-tagged human JAK2 (808 to end residues) expressed in baculovirus infected SF21 insect cells using Tyr 1054/1055 biotinylated peptide as substrate after 60 mins by Alphascreen assay
[12] = target: T1, High affinity nerve growth factor receptor; experiment: Inhibition of TRKA (unknown origin) using poly GT as substrate preincubated for 30 mins followed by substrate addition measured after 30 mins by TR-FRET Assay
[13] = target: T3, Tyrosine-protein kinase JAK2; experiment: Inhibition of N-terminal His-tagged human JAK2 catalytic domain (826 to 1132 end residues) expressed in baculovirus expression system using TK peptide as substrate after 120 mins by HTRF assay
[14] = target: T2, BDNF/NT-3 growth factors receptor; experiment: Inhibition of N- terminal GST-tagged human TRKB cytoplasmic domain (456 to 822 end residues) expressed in baculovirus expression system using TK peptide as substrate after 60 mins by HTRF assay
[15] = target: NT-3 growth factor receptor (Homo sapiens, UniProt Q16288); experiment: Inhibition of N- terminal GST-tagged human TRKC catalytic domain (456 to 825 end residues) expressed in baculovirus expression system using TK peptide as substrate after 60 mins by HTRF assay
[16] = target: T1, High affinity nerve growth factor receptor; experiment: Inhibition of N- terminal GST-tagged human TRKA cytoplasmic domain (436 to 790 end residues) using TK peptide as substrate after 60 mins by HTRF assay
[17] = system: OVCAR-3; experiment: Cytotoxicity against human OVCAR3 cells after 24 to 72 hrs by MTT assay; assay type: functional, cell-based
[18] = system: SK-OV-3; experiment: Cytotoxicity against human SKOV3 cells after 24 to 72 hrs by MTT assay; assay type: functional, cell-based
[19] = target: T1, High affinity nerve growth factor receptor; experiment: Inhibition TRKA (unknown origin)
[20] = system: K562; experiment: Growth inhibition of human K562 cells; assay type: functional, cell-based
[21] = system: KM12; experiment: cells; details: Homo sapiens
Description: Growth inhibition of human KM12 cells

T1 sequence (P04629 whole entry): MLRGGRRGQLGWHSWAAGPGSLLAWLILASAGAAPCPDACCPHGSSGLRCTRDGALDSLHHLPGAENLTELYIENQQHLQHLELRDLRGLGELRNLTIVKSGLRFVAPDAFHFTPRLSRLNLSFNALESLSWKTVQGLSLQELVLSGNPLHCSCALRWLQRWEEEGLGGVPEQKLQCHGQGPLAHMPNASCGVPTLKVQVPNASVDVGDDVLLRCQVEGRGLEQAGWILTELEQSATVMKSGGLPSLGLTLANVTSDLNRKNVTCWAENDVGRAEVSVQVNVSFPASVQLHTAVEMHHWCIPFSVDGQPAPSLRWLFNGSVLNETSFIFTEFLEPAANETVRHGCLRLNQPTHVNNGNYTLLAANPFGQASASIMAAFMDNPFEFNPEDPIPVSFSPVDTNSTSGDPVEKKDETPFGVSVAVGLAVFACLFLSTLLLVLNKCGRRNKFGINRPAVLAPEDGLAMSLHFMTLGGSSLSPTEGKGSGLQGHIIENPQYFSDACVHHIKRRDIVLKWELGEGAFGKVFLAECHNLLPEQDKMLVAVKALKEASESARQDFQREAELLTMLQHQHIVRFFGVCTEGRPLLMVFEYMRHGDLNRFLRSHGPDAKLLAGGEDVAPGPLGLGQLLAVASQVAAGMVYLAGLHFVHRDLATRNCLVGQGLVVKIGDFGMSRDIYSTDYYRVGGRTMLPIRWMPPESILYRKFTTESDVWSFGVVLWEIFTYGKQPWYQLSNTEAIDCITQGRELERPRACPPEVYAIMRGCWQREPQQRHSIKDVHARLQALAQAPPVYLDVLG
T3 sequence (O60674 whole entry): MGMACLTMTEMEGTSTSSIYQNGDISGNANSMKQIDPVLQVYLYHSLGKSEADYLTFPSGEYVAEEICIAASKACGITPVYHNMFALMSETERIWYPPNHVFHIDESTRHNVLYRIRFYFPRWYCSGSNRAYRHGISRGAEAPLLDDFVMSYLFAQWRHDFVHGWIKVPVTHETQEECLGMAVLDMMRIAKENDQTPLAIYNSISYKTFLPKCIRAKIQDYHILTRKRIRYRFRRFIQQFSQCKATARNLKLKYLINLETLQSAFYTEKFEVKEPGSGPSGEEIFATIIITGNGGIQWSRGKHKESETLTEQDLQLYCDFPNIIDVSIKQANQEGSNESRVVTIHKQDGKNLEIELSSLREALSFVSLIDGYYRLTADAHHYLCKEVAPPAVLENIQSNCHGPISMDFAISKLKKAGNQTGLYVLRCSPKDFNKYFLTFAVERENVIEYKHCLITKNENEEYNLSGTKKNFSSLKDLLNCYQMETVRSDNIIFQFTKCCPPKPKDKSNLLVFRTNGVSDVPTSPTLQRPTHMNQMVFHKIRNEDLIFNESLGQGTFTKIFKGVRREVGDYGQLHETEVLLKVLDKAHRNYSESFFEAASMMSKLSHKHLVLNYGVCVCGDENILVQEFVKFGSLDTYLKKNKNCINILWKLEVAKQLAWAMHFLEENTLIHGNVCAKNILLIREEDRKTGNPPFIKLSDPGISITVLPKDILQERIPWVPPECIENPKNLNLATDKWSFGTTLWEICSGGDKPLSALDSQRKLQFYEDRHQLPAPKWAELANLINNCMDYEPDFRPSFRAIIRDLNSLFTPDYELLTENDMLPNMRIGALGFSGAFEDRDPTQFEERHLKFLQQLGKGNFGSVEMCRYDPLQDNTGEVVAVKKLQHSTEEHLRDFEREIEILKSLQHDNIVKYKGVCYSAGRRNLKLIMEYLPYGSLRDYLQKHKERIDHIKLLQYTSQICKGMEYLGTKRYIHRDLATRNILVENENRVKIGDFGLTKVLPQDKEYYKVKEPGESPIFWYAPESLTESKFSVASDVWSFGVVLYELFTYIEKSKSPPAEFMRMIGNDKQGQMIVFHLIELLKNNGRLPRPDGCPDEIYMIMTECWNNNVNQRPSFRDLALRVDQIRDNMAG
T2 sequence (Q16620 whole entry): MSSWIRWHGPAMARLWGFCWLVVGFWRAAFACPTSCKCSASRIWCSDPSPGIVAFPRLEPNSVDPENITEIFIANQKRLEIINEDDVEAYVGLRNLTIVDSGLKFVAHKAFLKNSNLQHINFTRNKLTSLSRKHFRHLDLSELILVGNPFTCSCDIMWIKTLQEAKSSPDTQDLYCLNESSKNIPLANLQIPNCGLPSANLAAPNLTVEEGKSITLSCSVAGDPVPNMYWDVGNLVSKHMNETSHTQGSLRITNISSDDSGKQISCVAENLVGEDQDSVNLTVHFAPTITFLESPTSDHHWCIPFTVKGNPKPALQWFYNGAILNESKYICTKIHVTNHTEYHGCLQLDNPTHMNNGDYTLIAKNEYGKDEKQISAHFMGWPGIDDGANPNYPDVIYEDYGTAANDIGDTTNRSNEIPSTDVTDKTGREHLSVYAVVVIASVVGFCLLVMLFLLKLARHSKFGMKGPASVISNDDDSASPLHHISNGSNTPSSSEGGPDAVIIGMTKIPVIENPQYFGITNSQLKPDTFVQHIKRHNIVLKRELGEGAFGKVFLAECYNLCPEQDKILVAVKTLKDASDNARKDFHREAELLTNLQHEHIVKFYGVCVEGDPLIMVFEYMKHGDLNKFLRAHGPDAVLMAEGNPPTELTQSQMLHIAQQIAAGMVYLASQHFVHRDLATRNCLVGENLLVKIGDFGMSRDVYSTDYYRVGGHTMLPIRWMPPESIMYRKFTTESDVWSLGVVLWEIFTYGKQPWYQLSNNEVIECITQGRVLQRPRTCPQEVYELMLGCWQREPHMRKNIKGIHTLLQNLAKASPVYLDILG
Tyrosine-protein kinase BTK, sequence (Q06187 whole entry): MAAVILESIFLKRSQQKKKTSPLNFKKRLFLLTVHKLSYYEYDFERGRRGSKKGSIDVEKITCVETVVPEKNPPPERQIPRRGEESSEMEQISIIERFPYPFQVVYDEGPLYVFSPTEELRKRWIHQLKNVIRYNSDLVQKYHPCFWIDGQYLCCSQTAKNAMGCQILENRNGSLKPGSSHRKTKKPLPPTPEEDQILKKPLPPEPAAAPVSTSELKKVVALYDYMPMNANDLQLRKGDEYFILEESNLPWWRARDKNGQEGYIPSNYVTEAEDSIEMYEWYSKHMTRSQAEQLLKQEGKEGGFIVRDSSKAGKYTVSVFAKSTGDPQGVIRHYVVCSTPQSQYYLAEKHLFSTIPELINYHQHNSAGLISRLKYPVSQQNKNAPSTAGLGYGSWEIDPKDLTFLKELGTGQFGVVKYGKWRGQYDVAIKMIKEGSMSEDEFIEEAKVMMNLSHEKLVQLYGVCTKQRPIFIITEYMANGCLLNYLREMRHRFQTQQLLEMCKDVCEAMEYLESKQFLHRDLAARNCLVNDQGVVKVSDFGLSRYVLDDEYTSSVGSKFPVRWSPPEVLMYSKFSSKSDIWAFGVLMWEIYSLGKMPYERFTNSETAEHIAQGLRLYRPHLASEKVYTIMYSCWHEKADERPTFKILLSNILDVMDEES
NT-3 growth factor receptor, sequence (Q16288 whole entry, the tested form may be a part): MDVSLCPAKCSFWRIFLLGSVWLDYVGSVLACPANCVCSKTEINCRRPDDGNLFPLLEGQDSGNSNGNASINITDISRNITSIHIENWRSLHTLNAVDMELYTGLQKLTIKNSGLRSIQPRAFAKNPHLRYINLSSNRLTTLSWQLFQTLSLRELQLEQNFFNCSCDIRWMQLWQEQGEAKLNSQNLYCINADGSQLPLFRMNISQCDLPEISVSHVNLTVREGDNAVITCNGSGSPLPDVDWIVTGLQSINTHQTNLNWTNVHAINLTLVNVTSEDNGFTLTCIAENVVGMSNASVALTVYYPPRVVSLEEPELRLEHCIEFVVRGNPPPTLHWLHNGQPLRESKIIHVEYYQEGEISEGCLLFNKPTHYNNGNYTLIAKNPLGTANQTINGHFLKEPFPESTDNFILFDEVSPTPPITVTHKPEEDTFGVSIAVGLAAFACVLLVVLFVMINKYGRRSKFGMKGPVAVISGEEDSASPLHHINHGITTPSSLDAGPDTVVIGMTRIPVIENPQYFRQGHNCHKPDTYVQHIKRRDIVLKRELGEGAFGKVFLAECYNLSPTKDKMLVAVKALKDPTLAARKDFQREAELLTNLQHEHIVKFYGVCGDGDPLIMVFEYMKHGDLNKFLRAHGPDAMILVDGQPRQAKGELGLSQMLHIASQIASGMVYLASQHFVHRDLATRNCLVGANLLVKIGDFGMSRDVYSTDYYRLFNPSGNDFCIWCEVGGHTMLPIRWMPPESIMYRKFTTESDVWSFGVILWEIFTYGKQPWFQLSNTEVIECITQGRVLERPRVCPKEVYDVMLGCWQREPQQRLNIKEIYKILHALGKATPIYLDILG

Compound: C[C@@H]1CCc2ncc(F)cc2[C@H]2CCCN2c2ccn3ncc(c3n2)C(=O)N1 [SELITRECTINIB]
IC50 [3]: > 1000 nM

Compound: CC(C)c1nnc(-c2cnn3ccc(N4CCCC4c4cc(F)ccc4F)nc23)o1 (stereo not given)
IC50 [5]: < 10 nM

Compound: Nc1cc(NS(=O)(=O)c2cccc(C(F)(F)F)c2)cc(-c2ccc3c(-c4ccncc4)c[nH]c3n2)c1
IC50 [3]: > 1000 nM

Compound: CC(C)(O)c1ccc2nc(-c3ccccc3)c(NC(=O)c3cc(-c4ncccn4)c(C(F)(F)F)cc3F)n2c1
IC50 [1]: 0.89 nM

Compound: COCCN1C[C@@H](NC(=O)Nc2cc3cc(OC)c(OC)cc3nc2-c2ccccc2)[C@H](c2ccccc2)C1
IC50 [10]: < 100 nM

Compound: O=C(Nc1ccc(F)cc1)c1cnc2ccc(N3CCCC3c3cc(F)ccc3F)cn12 (stereo not given)
IC50 [12]: < 50 nM

Compound: Nc1nn2cc(N3CCC[C@@H]3c3cc(F)ccc3F)cnc2c1C(=O)Nc1ccc(F)cc1
IC50 [13]: > 500 nM | IC50 [14]: < 10 nM | IC50 [15]: < 10 nM | IC50 [16]: < 1 nM

Compound: O=C(Cn1c2c(c3cc(F)ccc31)CCn1nccc1-2)NCc1ccc(-c2c(F)cccc2F)cn1
IC50 [1]: 0.9 to 1 nM

Compound: H-NTDLLNSNDNG-OH
IC50 [17]: 200 nM | IC50 [18]: 200 nM

Compound: O=C(Nc1cccnc1-c1ccccc1)NC1c2ccccc2-c2ccccc21
IC50 [1]: 27 to 30 nM

Compound: COc1ncc(F)cc1[C@H]1C[C@H](F)CN1c1ccn2ncc(C#N)c2n1
IC50 [6]: < 10 nM

Compound: CC(C)c1cc(C(=O)c2cccc(NC(=O)Nc3ccc4ccccc4c3)c2)c2c(N)ncnn12
IC50 [4]: < 1 nM

Compound: C[C@H](Nc1ccc([N+](=O)[O-])c(Nc2cc(C3CC3)[nH]n2)n1)c1ccc(F)cc1
IC50 [3]: 63 nM

The remaining lines, values ahead:

IC50 [1]: 1.7 nM | IC50 [2]: 6.1 nM
Compound: COCCN1C[C@@H](NC(=O)Nc2c(C)c(-c3cnn(C)c3)nn2-c2ccccc2)[C@H](c2ccccc2)C1

IC50 [4]: < 1 nM
Compound: CC(C)c1cc(C(=O)c2cccc(NC(=O)Nc3ccccc3)c2)c2c(N)ncnn12

IC50 [6]: < 10 nM
Compound: N#Cc1cc(F)cc([C@H]2C[C@H](F)CN2c2ccn3ncc(C#N)c3n2)c1

IC50 [7]: 1.04 nM
Compound: Nc1cc(CNC(=O)c2cc(NC(=O)c3cc(-c4cccc(F)n4)c(F)cc3Cl)n(-c3ccccc3)n2)ccn1

IC50 [3]: 10 nM
Compound: C[C@H](Nc1ncc(F)c(Nc2cc(C3CC3)[nH]n2)n1)c1ccc(F)cn1

IC50 [3]: 59 nM
Compound: OCC[C@H](Nc1nc(Nc2cc(C3CC3)[nH]n2)c2sccc2n1)c1ccc(F)cc1

IC50 [8]: 1500 nM | IC50 [9]: 0.536 nM | IC50 [1]: 0.2 nM
Compound: CC(C)N1Cc2cc(cc(F)c2Cl)O[C@@H](C)CNC(=O)c2cnn3ccc1nc23

IC50 [11]: 33 nM
Compound: Cc1cc(Nc2cnc(C#N)c(N[C@@H](C)c3ccc(F)cc3)n2)n[nH]1

IC50 [3]: 611 nM
Compound: C[C@H](Nc1nc(Nc2cc(C3CC3)[nH]n2)c(F)cc1CNC(=O)C1CCC(=O)N1)c1ccc(F)cc1 (stereo not given in full)

IC50 [3]: 1240 nM
Compound: C[C@H](Nc1cc(NCCO)c([N+](=O)[O-])c(Nc2cc(C3CC3)[nH]n2)c1)c1ccc(F)cc1

IC50 [13]: > 2000 nM | IC50 [14]: < 10 nM | IC50 [15]: < 10 nM | IC50 [16]: < 1 nM
Compound: NC(=O)c1c(N)nn2cc(N3CCC[C@@H]3c3cc(F)ccc3F)cnc12

IC50 [3]: > 1000 nM
Compound: CS(=O)(=O)Nc1cccc(-c2c[nH]c3ncc(-c4cncc(NS(=O)(=O)c5ccccc5)c4)cc23)c1

IC50 [6]: < 10 nM
Compound: N#Cc1cnn2ccc(N3C[C@@H](F)C[C@@H]3c3cc(F)ccc3F)nc12

IC50 [19]: < 1 nM | IC50 [4]: < 1 nM
Compound: CC(C)c1cc(C(=O)c2cccc(NC(=O)Nc3ccc(Cl)cc3Cl)c2)c2c(N)ncnn12

IC50 [8]: 4.42 nM | GI50 [20]: 51.4 nM | IC50 [19]: 3.81 nM | IC50 [21]: 19 nM
Compound: CCN1CCN(Cc2ccc(NC(=O)Nc3nc4ccc(Oc5ccnc(C(=O)NC)c5)cc4s3)cc2C(F)(F)F)CC1

IC50 [8]: 5000 nM | IC50 [9]: 9.67 nM | IC50 [1]: 0.2 nM
Compound: CC(C)N1Cc2cc(c(F)cc2F)OCCCNC(=O)c2cnn3ccc1nc23
